Like-named read-outs stand apart in the source and are kept apart here.
Assays:
[1] = cited from earlier work
[2] = in vivo

Compound | water solubility (1 part of drug in the number of parts of water) ([1]; water) | other results
CC[C@H]1OC(=O)[C@H](C)[C@@H](O[C@H]2C[C@@](C)(OC)[C@@H](O)[C@H](C)O2)[C@H](C)[C@@H](O[C@@H]2O[C@H](C)C[C@H](N(C)C)[C@H]2O)[C@](C)(OC)C[C@@H](C)C(=O)[C@H](C)[C@@H](O)[C@]1(C)O [clarithromycin] | – | water solubility (1 part of drug in the number of parts of water) ([1]; 1 part drug in x parts water, a higher number is a lower solubility): ~1,000 parts of water; solubility in the stomach ([1]; pH 1.2): very soluble; solubility in the upper region of the small intestine ([1]; pH 5.0): fairly soluble; solubility in the lower intestine ([1]; pH 6 to 8): solubility decreases
CC[C@H]1OC(=O)[C@H](C)[C@@H](O[C@H]2C[C@@](C)(OC)[C@@H](O)[C@H](C)O2)[C@H](C)[C@@H](O[C@@H]2O[C@H](C)C[C@H](N(C)C)[C@H]2O)[C@](C)(O)C[C@@H](C)C(=O)[C@H](C)[C@@H](O)[C@]1(C)O [erythromycin] | 1,000 parts of water | reproducibly bioavailable controlled release formulations [2]: not possible
CC1Cc2ccccc2N1NC(=O)c1ccc(Cl)c(S(N)(=O)=O)c1 (stereo not drawn) [indapamide] | more than 10,000 parts of water | –
CO[C@@H]1[C@@H](O[C@@H]2O[C@H](C)[C@@H](O[C@H]3C[C@@](C)(O)[C@@H](OC(=O)CC(C)C)[C@H](C)O3)[C@H](N(C)C)[C@H]2O)[C@@H](CC=O)C[C@@H](C)[C@@H](O)/C=C/C=C/C[C@@H](C)OC(=O)C[C@H]1OC(C)=O [josamycin] | 1,000-10,000 parts of water | –
Cc1ncc([N+](=O)[O-])n1CCO [metronidazole] | 100-1,000 parts of water | –
CCC(=O)O[C@@H]1CC(=O)O[C@H](C)C/C=C/C=C/[C@H](O)[C@H](C)C[C@H](CC=O)[C@H](O[C@@H]2O[C@H](C)[C@@H](O[C@H]3C[C@@](C)(O)[C@@H](OC(=O)CC)[C@H](C)O3)[C@H](N(C)C)[C@H]2O)[C@H]1OC [midecamycin] | – | water solubility in words ([1]; water): very slightly soluble in water
CC[C@H]1OC(=O)C[C@@H](O)[C@H](C)[C@@H](O[C@@H]2O[C@H](C)[C@@H](O[C@H]3C[C@@](C)(O)[C@@H](O)[C@H](C)O3)[C@H](N(C)C)[C@H]2O)[C@@H](CC=O)C[C@@H](C)C(=O)/C=C/C(C)=C/[C@@H]1CO[C@@H]1O[C@H](C)[C@@H](O)[C@@H](OC)[C@H]1OC [tylosin] | 100-1,000 parts of water | –
kitasamycin | 1,000-10,000 parts of water | –
